# Laboratory results reported in patent US12180187B2, “1-phenyl-5-azinylpyrazolyl-3-oxyalkyl acids and their use for controlling unwanted plant growth” (BAYER AKTIENGESELLSCHAFT, priority 2019, dated 2024).
# Tests used:
# DIGSA [1] = experiment: Pre-emergence action against DIGSA, 1280 g/ha; type: in vivo, Digitaria sanguinalis; conditions: visual scoring after about 3 weeks vs untreated controls, 100% = plants have died, 0% = like control plants
# Outline: (§1)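 In greenhouse pots of sandy loam, sown weed seeds were covered with soil and treated pre-emergence with the compound in water (600 L/ha, 0.5% additive). Efficacy was assessed visually as percent of untreated control after about 3 weeks.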
# LOLRI [2] = experiment: Pre-emergence action against LOLRI, 1280 g/ha; type: in vivo, Lolium rigidum; conditions: visual scoring after about 3 weeks vs untreated controls, 100% = plants have died, 0% = like control plants
# Outline: as §1
# ABUTH = experiment: Pre-emergence action against ABUTH, 1280 g/ha; type: in vivo, Abutilon theophrasti; conditions: scored visually after about 3 weeks vs untreated controls (100% = plants have died)
# Outline: as §1
# VERPE [3] = experiment: Pre-emergence action against VERPE, 1280 g/ha; type: in vivo, Veronica persica; conditions: scored visually after about 3 weeks vs untreated controls (100% = plants have died)
# Outline: as §1
# AVEFA = experiment: Pre-emergence action at 320 g/ha against AVEFA; type: in vivo; conditions: visual scoring after about 3 weeks vs untreated controls
# Outline: (§2)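 Weed seeds sown in pots and covered with soil; compounds formulated as WP or EC were sprayed onto the soil surface as aqueous suspension or emulsion with 0.5% additive at 600 l/ha water. Pots kept in greenhouse; activity scored visually after about 3 weeks versus untreated controls (100% = plants dead, 0% = like control).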
# LOLRI [4] = experiment: Pre-emergence action at 320 g/ha against LOLRI; type: in vivo, Lolium rigidum; conditions: visual scoring after about 3 weeks vs untreated controls
# Outline: as §2
# VERPE [5] = experiment: Pre-emergence action at 320 g/ha against VERPE; type: in vivo, Veronica persica; conditions: visual scoring after about 3 weeks vs untreated controls
# Outline: as §2
# ALOMY [6] = experiment: Post-emergence action against ALOMY, 1.28 kg/ha; type: in vivo, Alopecurus myosuroides; conditions: dosage 1280 g/ha, visual rating about 3 weeks after treatment vs untreated controls
# Outline: (§3)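 Weeds grown in sandy loam in a greenhouse were sprayed at the one-leaf stage, 2–3 weeks after sowing, with WP or EC formulations in water containing 0.5% additive at 600 L/ha. About 3 weeks later, damage was scored visually versus untreated controls (0% = like control, 100% = dead).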
# SETVI = experiment: Post-emergence action against SETVI, 1.28 kg/ha; type: in vivo, Setaria viridis; conditions: dosage 1280 g/ha, visual rating about 3 weeks after treatment vs untreated controls
# Outline: as §3
# MATIN = experiment: Post-emergence action against MATIN, 1.28 kg/ha; type: in vivo, Tripleurospermum inodorum (Matricaria inodora); conditions: dosage 1280 g/ha, visual rating about 3 weeks after treatment vs untreated controls (100% = plants died)
# Outline: as §3
# STEME = experiment: Post-emergence action against STEME, 1.28 kg/ha; type: in vivo, Stellaria media; conditions: dosage 1280 g/ha, visual rating about 3 weeks after treatment vs untreated controls (100% = plants died)
# Outline: as §3
# VERPE [7] = experiment: Post-emergence action against VERPE, 1.28 kg/ha; type: in vivo, Veronica persica; conditions: dosage 1280 g/ha, visual rating about 3 weeks after treatment vs untreated controls (100% = plants died)
# Outline: as §3
# ALOMY [8] = experiment: Post-emergence action against ALOMY, 320 g/ha; type: in vivo, Alopecurus myosuroides; conditions: dosage 320 g/ha, visual rating about 3 weeks after treatment vs untreated controls (100% = plants died)
# Outline: (§4)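 Sow in sandy loam → greenhouse growth 2–3 wk → spray at one-leaf stage (WP/EC, aqueous, +0.5% additive, 600 l/ha) → hold ~3 wk under optimum conditions → visual rating, 0–100% relative to untreated.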
# AMARE = experiment: Post-emergence action at 320 g/ha against AMARE; type: in vivo, Amaranthus retroflexus; conditions: visual rating about 3 weeks after treatment vs untreated controls
# Outline: as §4
# PHBPU = experiment: Post-emergence action at 320 g/ha against PHBPU; type: in vivo; conditions: visual rating about 3 weeks after treatment vs untreated controls
# Outline: as §4
# DIGSA [9] = experiment: Post-emergence action against DIGSA, 1.28 kg/ha; type: in vivo, Digitaria sanguinalis; conditions: dosage 1280 g/ha, visual rating about 3 weeks after treatment vs untreated controls
# Outline: as §3
Structure (SMILES),Pre-emergence action against DIGSA (DIGSA [1]),Pre-emergence action against LOLRI (LOLRI [2]),Pre-emergence action against ABUTH (ABUTH),Pre-emergence action against VERPE (VERPE [3]),Pre-emergence action against AVEFA in % (AVEFA),Pre-emergence action against LOLRI in % (LOLRI [4]),Pre-emergence action against VERPE in % (VERPE [5]),Post-emergence action against ALOMY (ALOMY [6]),Post-emergence action against SETVI (SETVI),Post-emergence action against MATIN (MATIN),Post-emergence action against STEME (STEME),Post-emergence action against VERPE (VERPE [7]),Post-emergence action against ALOMY (ALOMY [8]),Post-emergence action against AMARE in % (AMARE),Post-emergence action against PHBPU in % (PHBPU),Post-emergence action against DIGSA (DIGSA [9])
COC(=O)[C@@H](C)Oc1nn(-c2ccccc2)c(-c2cccnc2)c1Br [VII-008],100%,100%,90%,100%,80%,100%,100%,100%,90%,90%,100%,100%,100%,90%,80%,–
CCOC(=O)COc1nn(-c2ccccc2F)c(-c2ccc(F)nc2)c1C(F)(F)F [VII-010],100%,100%,100%,100%,90%,100%,100%,100%,90%,90%,100%,90%,90%,90%,90%,100%
CCOC(=O)COc1nn(-c2ccccc2F)c(-c2cncc(F)c2)c1Br [VII-015],90%,100%,90%,100%,90%,90%,100%,100%,90%,100%,100%,100%,90%,90%,90%,100%
CCOC(=O)COc1nn(-c2ccc(F)cc2F)c(-c2ccc(F)nc2)c1Cl [VII-016],–,100%,100%,90%,90%,100%,90%,–,90%,100%,100%,90%,90%,90%,90%,–
COC(=O)COc1nn(-c2ccccc2)c(-c2ccc(F)nc2)c1Br [VII-018],100%,100%,90%,100%,80%,100%,100%,100%,100%,90%,100%,90%,90%,90%,90%,100%
CCOC(=O)C(C)Oc1nn(-c2ccccc2F)c(-c2ccc(F)nc2)c1Br (centres unmarked) [VII-019],100%,100%,90%,100%,90%,100%,100%,100%,90%,–,100%,90%,100%,80%,90%,100%
O=C(O)COc1nn(-c2ccccc2F)c(-c2cncc(F)c2)c1Br [VII-025],100%,100%,90%,100%,80%,90%,100%,100%,90%,90%,100%,100%,100%,90%,90%,100%
COC(=O)[C@@H](C)Oc1nn(-c2cc(F)ccc2F)c(-c2cncc(F)c2)c1Br [VII-132],100%,100%,90%,100%,100%,100%,100%,100%,90%,90%,–,90%,90%,90%,90%,100%
